The molecules below were run against Protein Wiz (Homo sapiens, UniProt O95785) (assay: Induction of HiBit-tagged WIZ protein degradation expressed in HEK293T cells assessed as reduction in WIZ protein level incubated for 18 hrs by luminescence based assay).
Type: cell-based

Sequence of Protein Wiz (O95785 whole entry): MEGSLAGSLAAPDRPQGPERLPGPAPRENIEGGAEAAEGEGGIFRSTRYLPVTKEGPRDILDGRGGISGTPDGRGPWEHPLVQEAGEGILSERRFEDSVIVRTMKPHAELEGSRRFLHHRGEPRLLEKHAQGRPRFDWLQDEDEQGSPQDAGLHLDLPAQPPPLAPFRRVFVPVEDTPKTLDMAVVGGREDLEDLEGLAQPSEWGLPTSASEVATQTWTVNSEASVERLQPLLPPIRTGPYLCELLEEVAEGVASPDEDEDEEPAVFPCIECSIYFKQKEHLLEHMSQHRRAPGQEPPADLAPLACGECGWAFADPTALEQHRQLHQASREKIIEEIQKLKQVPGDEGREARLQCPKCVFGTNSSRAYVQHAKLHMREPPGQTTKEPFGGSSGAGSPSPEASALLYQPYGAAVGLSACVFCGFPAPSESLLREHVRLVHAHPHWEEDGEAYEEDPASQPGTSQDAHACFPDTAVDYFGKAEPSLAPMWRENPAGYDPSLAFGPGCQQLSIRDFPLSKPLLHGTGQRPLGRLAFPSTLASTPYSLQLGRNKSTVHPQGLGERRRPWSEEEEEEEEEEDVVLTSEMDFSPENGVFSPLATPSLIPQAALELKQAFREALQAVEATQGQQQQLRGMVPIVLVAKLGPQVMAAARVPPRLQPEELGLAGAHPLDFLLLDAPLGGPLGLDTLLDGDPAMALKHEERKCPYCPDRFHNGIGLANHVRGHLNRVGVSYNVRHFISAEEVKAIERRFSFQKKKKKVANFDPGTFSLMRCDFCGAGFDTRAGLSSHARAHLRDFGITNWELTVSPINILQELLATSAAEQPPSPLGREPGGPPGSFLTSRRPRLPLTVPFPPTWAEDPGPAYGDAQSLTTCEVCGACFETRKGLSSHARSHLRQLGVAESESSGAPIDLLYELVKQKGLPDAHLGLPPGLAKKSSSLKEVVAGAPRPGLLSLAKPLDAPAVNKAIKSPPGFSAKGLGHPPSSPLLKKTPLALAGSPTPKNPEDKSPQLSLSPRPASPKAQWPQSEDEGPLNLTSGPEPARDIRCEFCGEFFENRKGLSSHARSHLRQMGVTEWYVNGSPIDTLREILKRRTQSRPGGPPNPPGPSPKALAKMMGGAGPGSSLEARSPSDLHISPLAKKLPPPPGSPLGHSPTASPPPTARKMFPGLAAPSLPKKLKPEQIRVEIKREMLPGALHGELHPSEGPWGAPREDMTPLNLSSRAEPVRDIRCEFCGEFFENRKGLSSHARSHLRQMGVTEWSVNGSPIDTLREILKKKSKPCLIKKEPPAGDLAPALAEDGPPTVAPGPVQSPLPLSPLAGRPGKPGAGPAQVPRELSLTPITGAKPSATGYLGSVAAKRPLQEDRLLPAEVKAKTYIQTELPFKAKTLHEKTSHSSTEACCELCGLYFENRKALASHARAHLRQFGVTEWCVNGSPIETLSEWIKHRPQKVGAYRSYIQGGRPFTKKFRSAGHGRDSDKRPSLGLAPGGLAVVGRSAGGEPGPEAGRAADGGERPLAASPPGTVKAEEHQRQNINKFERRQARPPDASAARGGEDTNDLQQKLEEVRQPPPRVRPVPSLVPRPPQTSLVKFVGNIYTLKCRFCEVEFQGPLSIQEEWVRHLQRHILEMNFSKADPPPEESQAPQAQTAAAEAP

With `O=C1CCC(N2Cc3cc(OC[C@H]4CCCCN4Cc4ccc(C5=CCOCC5)cc4)ccc3C2=O)C(=O)N1` (stereo partly specified) as the molecule, how does the AC50 read?
Its AC50 is 0.35 nM.

How did the AC50 turn out when `COc1ccc(CN2CCCC[C@@H]2COc2ccc3c(c2)CN(C2CCC(=O)NC2=O)C3=O)c(OC)c1` (stereo partly specified) was run?
The AC50 was 0.52 nM.

With `O=C1CCC(N2Cc3cc(OC[C@H]4CCCCN4Cc4ccc(C5(C(F)(F)F)CC5)cc4)ccc3C2=O)C(=O)N1` (stereo partly specified) as the molecule, how does the AC50 read?
Its AC50 is 0.22 nM.

For `CC(C)(C)c1ccc(CN2CCCC[C@@H]2COc2ccc3c(c2)CN(C2CCC(=O)NC2=O)C3=O)cc1` (stereo partly specified), which AC50 is on record?
The AC50 was 0.083 nM.

`O=C1CCC(N2Cc3cc(OC[C@H]4CCCCN4Cc4ccc5c(c4)OC(F)(F)O5)ccc3C2=O)C(=O)N1` (stereo partly specified) was tested. Which AC50 did it give?
The AC50 was 0.47 nM.

For `O=C1CCC(N2Cc3cc(OC[C@H]4CCCCN4Cc4ccc(N5CCCCC5)cc4)ccc3C2=O)C(=O)N1` (stereo partly specified), which AC50 is on record?
Its AC50 is 0.37 nM.

Reference: ChEMBL document CHEMBL4825745, “Novel Substituted Piperidine-2,6-dione Derivatives for Treating Sickle Cell Disease and β-Thalassemia” (ACS Med Chem Lett, 2021)
